In assay [1] the target is recombinant N-terminal PMS2 (residues 1-365) (Homo sapiens (Human), UniProt P54278). Nature of the assay: Fluorescence polarisation assay for PMS2. The class given is binding. The settings on record: FP probe displacement; 10 nM N-terminal PMS2, 5 nM probe compound, read after 1 hour. On the procedure:
Fluorescence Polarisation Assay for PMS2
(§1) Test compounds, as 10 mM DMSO stocks, were dispensed into a Black Fluotrac 200 384 well medium binding plate (Greiner Bio-One, item number 781076) using a Labcyte Echo acoustic liquid handler. For single point screening, test compounds were added to wells in columns 1-22 whilst DMSO was added to wells in columns 23 and 24 in order to normalise the plate. For potency determination, serial dilutions of test compounds were added to wells in columns 3-22 and DMSO volume was normalised across the plate.
20 μL assay buffer was added to all wells in columns 1 and 24 (column 24 only for single point screening) using a MultiDrop Combi (ThermoFisher). Plates were centrifuged for 1 minute at 250×g and were incubated at room temperature for 30 minutes prior to the addition of 20 μL of 2×([…]) of 5-((5-(4-((2-(2,4-dihydroxy-5-isopropylbenzoyl)isoindolin-5-yl)methyl)piperazin-1-yl)pentyl)carbamoyl)-2-(6-(dimethylamino)-3-(dimethyliminio)-3H-xanthen-9-yl)benzoate (referred to hereinafter as “probe compound”) in assay buffer (prepared from a 100 μM DMSO stock) with a MultiDrop Combi (ThermoFisher). The final concentration of N-terminal PMS2 was 10 nM and the final concentration of probe compound was 5 nM.
Compound plates were centrifuged for 1 minute at 250×g for 1 minute and were incubated at room temperature for 1 hour before being read on a PheraStar FSX (fitted with 384-well aperture spoon and 540 590 590 FP optic module). The gain and focus were adjusted before each plate was read so that the polarisation of a no enzyme control (column 24) was equal to 35 mP. Data were normalised against the no inhibitor controls (column 23) and no enzyme controls (column 24).

Assay [2] concerns the target recombinant N-terminal MLH1 (residues 15-340) (Homo sapiens (Human), UniProt P40692). Nature of the assay: Fluorescence polarisation assay for MLH1 (protocol for all Examples except Examples 64, 76, 90 and 95). It is filed as binding. Particulars: FP probe displacement; 100 nM N-terminal MLH1, 5 nM probe compound, read after 15 minutes; all Examples except 64, 76, 90 and 95. The procedure:
Fluorescence Polarisation Assay for MLH1 (Protocol for all Examples Except Examples 64, 76, 90 and 95)
as §1
20 μL assay buffer was added to all wells in columns 1 and 24 (column 24 only for single point screening) using a MultiDrop Combi (ThermoFisher). Plates were centrifuged for 1 minute at 250×g and were incubated at room temperature for 30 minutes prior to the addition of 20 μL of 2×(10 nM) of 5-((5-(4-((2-(2,4-dihydroxy-5-isopropylbenzoyl)isoindolin-5-yl)methyl)piperazin-1-yl)pentyl)carbamoyl)-2-(6-(dimethylamino)-3-(dimethyliminio)-3H-xanthen-9-yl)benzoate (referred to hereinafter as “probe compound”) in assay buffer (prepared from a 100 μM DMSO stock) with a MultiDrop Combi (ThermoFisher). The final concentration of N-terminal MLH1 was 100 nM and the final concentration of probe compound was 5 nM.
Compound plates were centrifuged for 1 minute at 250×g for 1 minute and were incubated at room temperature for 15 minutes before being read on a PheraStar FSX (fitted with 384-well aperture spoon and 540 590 590 FP optic module). The gain and focus were adjusted before each plate was read so that the polarisation of a no enzyme control (column 24) was equal to 35 mP. Data were normalised against the no inhibitor controls (column 23) and no enzyme controls (column 24).
In general terms: In fluorescence polarisation assays a small probe gives low polarisation when free and higher when bound to something large.

recombinant N-terminal MLH1 (residues 15-340), sequence (P40692 15-340): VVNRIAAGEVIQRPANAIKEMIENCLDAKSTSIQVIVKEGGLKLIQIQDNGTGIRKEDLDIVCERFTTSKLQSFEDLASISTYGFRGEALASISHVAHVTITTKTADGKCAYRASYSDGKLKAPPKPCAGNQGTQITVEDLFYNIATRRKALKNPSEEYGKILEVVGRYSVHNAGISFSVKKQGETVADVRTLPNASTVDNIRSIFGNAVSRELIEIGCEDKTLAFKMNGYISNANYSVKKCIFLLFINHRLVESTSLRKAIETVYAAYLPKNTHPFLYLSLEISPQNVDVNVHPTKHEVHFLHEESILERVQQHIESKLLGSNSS
recombinant N-terminal PMS2 (residues 1-365), sequence (P54278 1-365): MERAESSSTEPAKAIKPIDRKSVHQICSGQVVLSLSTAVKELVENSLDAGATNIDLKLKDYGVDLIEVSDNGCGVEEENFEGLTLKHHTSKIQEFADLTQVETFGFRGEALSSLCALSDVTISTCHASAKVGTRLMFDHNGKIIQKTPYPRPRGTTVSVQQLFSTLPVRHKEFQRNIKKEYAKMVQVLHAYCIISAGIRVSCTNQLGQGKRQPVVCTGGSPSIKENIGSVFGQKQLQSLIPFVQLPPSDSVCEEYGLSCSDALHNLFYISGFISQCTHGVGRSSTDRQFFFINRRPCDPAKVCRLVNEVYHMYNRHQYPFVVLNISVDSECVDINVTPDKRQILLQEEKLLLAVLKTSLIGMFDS

By IC50 is commonly meant the concentration that gives 50% inhibition. Regarding `COc1cc2c(cc1OC)CN(C(=O)c1c(O)cc(O)cc1OCc1ccccc1)C2` [Example 26, (2-benzyloxy-4,6-dihydroxy-phenyl)-(5,6-dimethoxyisoindolin-2-yl)methanone], the IC50 in assay [1] was < 1 µM; in assay [2], 1 to 10 µM.

For the molecule `CC(Oc1cc(O)cc(O)c1C(=O)N1Cc2ccccc2C1)c1ccccc1` (stereo not shown) [Example 27, [2,4-dihydroxy-6-(1-phenylethoxy)phenyl]-isoindolin-2-yl-methanone], the IC50 is < 1 µM in assay [1] and 1 to 10 µM in assay [2].

Take `COc1ccc2c(c1)CN(C(=O)c1c(O)cc(O)cc1OC(C)c1ccccc1)C2` (stereo not shown) [Example 28, [2,4-dihydroxy-6-(1-phenylethoxy)phenyl]-(5-methoxyisoindolin-2-yl)methanone]: the values for the half-maximal inhibitory concentration (IC50) in assay [1] and in assay [2] were < 1 µM and 1 to 10 µM, respectively.

`COc1cc2c(cc1OC)CN(C(=O)c1c(O)cc(O)cc1OC(C)c1ccccc1)C2` (stereo not shown) [Example 29, [2,4-dihydroxy-6-(1-phenylethoxy)phenyl]-(5,6-dimethoxyisoindolin-2-yl)methanone]: the values for the IC50 in assay [1] and in assay [2] were < 1 µM and 1 to 10 µM, respectively.

On to `Cc1cccc(COc2c(C)c(O)cc(O)c2C(=O)N2Cc3cccnc3C2)c1` [Example 31, 5,7-dihydropyrrolo[3,4-b]pyridin-6-yl-[4,6-dihydroxy-3-methyl-2-(m-tolylmethoxy)phenyl]methanone], for which the IC50 in assay [1] was < 1 µM; in assay [2], > 10 µM.

As to `Cc1cccc(COc2cc(O)cc(O)c2C(=O)N2Cc3cccnc3C2)c1` [Example 32, 5,7-dihydropyrrolo[3,4-b]pyridin-6-yl-[2,4-dihydroxy-6-(m-tolylmethoxy)phenyl]methanone], the IC50 in assay [1] is < 1 µM; in assay [2] it was 1 to 10 µM.

As for `Cc1c(O)cc(O)c(C(=O)N2Cc3cccnc3C2)c1OCc1ccccn1` [Example 33, 5,7-dihydropyrrolo[3,4-b]pyridin-6-yl-[4,6-dihydroxy-3-methyl-2-(2-pyridylmethoxy)phenyl]methanone], the IC50 in assay [1] is 1 to 10 µM; in assay [2], > 10 µM.

Regarding `Cc1c(O)cc(O)c(C(=O)N2Cc3ccccc3C2)c1OCc1ccccn1` [Example 34, [4,6-dihydroxy-3-methyl-2-(2-pyridylmethoxy)phenyl]-isoindolin-2-yl-methanone], the 50% inhibitory concentration (IC50) in assay [1] was 1 to 10 µM; in assay [2] it was > 10 µM.

With `O=C(c1c(O)cc(O)cc1OCc1ccccn1)N1Cc2cccnc2C1` [Example 35, 5,7-dihydropyrrolo[3,4-b]pyridin-6-yl-[2,4-dihydroxy-6-(2-pyridylmethoxy)phenyl]methanone], the IC50 in assay [1] and in assay [2] was 1 to 10 µM throughout.

For the molecule `Cc1c(O)cc(O)c(C(=O)N2CCc3ccccc3C2)c1OCc1ccccc1` [Example 36, (2-benzyloxy-4,6-dihydroxy-3-methyl-phenyl)-(3,4-dihydro-1H-isoquinolin-2-yl)methanone], the IC50 in assay [1] is < 1 µM; in assay [2], > 10 µM.

For the molecule `O=C(c1c(O)cc(O)cc1OCc1ccccn1)N1Cc2ccccc2C1` [Example 37, [2,4-dihydroxy-6-(2-pyridylmethoxy)phenyl]-isoindolin-2-yl-methanone], the IC50 in assay [1] and in assay [2] was 1 to 10 µM each time.

As to `Cc1c(O)cc(O)c(C(=O)N2Cc3cccc(CO)c3C2)c1OCc1ccccc1` [Example 39, (2-benzyloxy-4,6-dihydroxy-3-methyl-phenyl)-[4-(hydroxymethyl)isoindolin-2-yl]methanone], the half-maximal inhibitory concentration (IC50) is < 1 µM in assay [1] and > 10 µM in assay [2].

Take `Cc1c(O)cc(O)c(C(=O)N2Cc3ccc(CN4CCN(C)CC4)cc3C2)c1OCc1ccccc1` [Example 40, (2-benzyloxy-4,6-dihydroxy-3-methyl-phenyl)-[5-[(4-methylpiperazin-1-yl)methyl]isoindolin-2-yl]methanone]: the IC50 in assay [1] was < 1 µM; in assay [2], > 10 µM.

With `COc1ccc2c(c1)CCN(C(=O)c1c(O)cc(O)c(C)c1OCc1ccccc1)C2` [Example 41, (2-benzyloxy-4,6-dihydroxy-3-methyl-phenyl)-(6-methoxy-3,4-dihydro-1H-isoquinolin-2-yl)methanone], the half-maximal inhibitory concentration (IC50) in assay [1] was < 1 µM; in assay [2], > 10 µM.

For the molecule `Cc1c(O)cc(O)c(C(=O)N2CCc3ccncc3C2)c1OCc1ccccc1` [Example 42, (2-benzyloxy-4,6-dihydroxy-3-methyl-phenyl)-(3,4-dihydro-1H-2,7-naphthyridin-2-yl)methanone], the IC50 was 1 to 10 µM in assay [1] and > 10 µM in assay [2].

Take `Cc1c(O)cc(O)c(C(=O)N2CCc3cnccc3C2)c1OCc1ccccc1` [Example 43, (2-benzyloxy-4,6-dihydroxy-3-methyl-phenyl)-(3,4-dihydro-1H-2,6-naphthyridin-2-yl)methanone]: the 50% inhibitory concentration (IC50) is 1 to 10 µM in assay [1] and > 10 µM in assay [2].

For `Cc1cccc(COc2c(C)c(O)cc(O)c2C(=O)N2CCc3ccccc3C2)c1` [Example 44, 3,4-dihydro-1H-isoquinolin-2-yl-[4,6-dihydroxy-3-methyl-2-(m-tolylmethoxy)phenyl]methanone], the concentration for half-maximal inhibition (IC50) was < 1 µM in assay [1] and > 10 µM in assay [2].

Take `COc1ccc2c(c1)CCN(C(=O)c1c(O)cc(O)c(C)c1OCc1ccccn1)C2` [Example 47, [4,6-dihydroxy-3-methyl-2-(2-pyridylmethoxy)phenyl]-(6-methoxy-3,4-dihydro-1H-isoquinolin-2-yl)methanone]: the half-maximal inhibitory concentration (IC50) in assay [1] and in assay [2] was > 10 µM each time.

For the molecule `Cc1c(O)cc(O)c(C(=O)N2CCc3ccccc3C2)c1OCc1ccc(F)cc1` [Example 48, 3,4-dihydro-1H-isoquinolin-2-yl-[2-[(4-fluorophenyl)methoxy]-4,6-dihydroxy-3-methyl-phenyl]methanone], the IC50 in assay [1] was < 1 µM; in assay [2], > 10 µM.

As for `CN1CCN(Cc2ccc3c(c2)CN(C(=O)c2c(O)cc(O)cc2OCc2ccccc2)C3)CC1` [Example 49, (2-(benzyloxy)-4,6-dihydroxyphenyl)(5-((4-methylpiperazin-1-yl)methyl)isoindolin-2-yl)methanone], the 50% inhibitory concentration (IC50) in assay [1] was < 1 µM; in assay [2] it was 1 to 10 µM.

For `Cc1c(O)cc(O)c(C(=O)N2Cc3cccc(N)c3C2)c1OCc1ccccc1` [Example 50, (4-aminoisoindolin-2-yl)(2-(benzyloxy)-4,6-dihydroxy-3-methylphenyl)methanone], the IC50 is < 1 µM in assay [1] and > 10 µM in assay [2].

For the molecule `C=Cc1cccc2c1CN(C(=O)c1c(O)cc(O)c(C)c1OCc1ccccc1)C2` [Example 51, (2-(benzyloxy)-4,6-dihydroxy-3-methylphenyl)(4-vinylisoindolin-2-yl)methanone], the results for the IC50 in assay [1] and in assay [2] were < 1 µM and > 10 µM, respectively.

On to `COc1ccc2c(c1)CN(C(=O)c1c(O)cc(O)c(C)c1OCc1ccccc1)CC2` [Example 52, (2-(benzyloxy)-4,6-dihydroxy-3-methylphenyl)(7-methoxy-3,4-dihydroisoquinolin-2(1H)-yl)methanone], for which the IC50 in assay [1] is < 1 µM; in assay [2], > 10 µM.

Take `Cc1c(O)cc(O)c(C(=O)N2CCc3cccnc3C2)c1OCc1ccccc1` [Example 53, (2-(benzyloxy)-4,6-dihydroxy-3-methylphenyl)(5,8-dihydro-1,7-naphthyridin-7(6H)-yl)methanone]: the figures for the IC50 in assay [1] and in assay [2] were 1 to 10 µM and > 10 µM, respectively.

As to `Cc1c(O)cc(O)c(C(=O)N2CCc3ncccc3C2)c1OCc1ccccc1` [Example 54, (2-(benzyloxy)-4,6-dihydroxy-3-methylphenyl)(7,8-dihydro-1,6-naphthyridin-6(5H)-yl)methanone], the results for the IC50 in assay [1] and in assay [2] were 1 to 10 µM and > 10 µM, respectively.

In the case of `Cc1c(O)cc(O)c(C(=O)N2CCc3ncncc3C2)c1OCc1ccccc1` [Example 55, (2-(benzyloxy)-4,6-dihydroxy-3-methylphenyl)(7,8-dihydropyrido[4,3-d]pyrimidin-6(5H)-yl)methanone], the half-maximal inhibitory concentration (IC50) is 1 to 10 µM in assay [1] and > 10 µM in assay [2].

These data come from US12552758B2, “Inhibitors of MLH1 and/or PMS2 for cancer treatment” (NeoPhore Limited, priority 2020, dated 2026).
